Results published in PubChem BioAssay AID236 (DTP/NCI, 2004).
Several values for one entry are separate records, joined by “and”; a condition that tells them apart may be missing. Identical values can stand only once. Toxic doses and inconclusive results are not listed.

Tested on: AK4 lymphoid leukemia ip, C3AKF1 mice, survival
Experiment: NCI In Vivo Anticancer Drug Screen. Data for tumor model AK4 Lymphoid Leukemia (intraperitoneal) in C3AKF1 (CHKRF1) mice
Settings: endpoint: median survival time, vehicle: saline, higher = longer survival
Method: The antitumor activity of compounds was measured in mice bearing transplantable tumors. Survival or tumor size were measured and the results are expressed as the measurement made in the treated group (T) divided by the measurement made in the vehicle treated control group (C). The tumor model used in this assay is AK4 Lymphoid Leukemia (intraperitoneal) in C3AKF1 (CHKRF1) mice

[1] = dose: 25.0 mg/kg/injection, schedule: Q01DX010 (ip)
[2] = dose: 50.0 mg/kg/injection, schedule: Q01DX010 (ip)
[3] = dose: 100.0 mg/kg/injection, schedule: Q01DX010 (ip)
[4] = dose: 200.0 mg/kg/injection, schedule: Q01DX010 (ip)
[5] = dose: 0.5 mg/kg/injection, schedule: Q01DX010 (ip)
[6] = dose: 2.0 mg/kg/injection, schedule: Q01DX010 (ip)
[7] = dose: 4.0 mg/kg/injection, schedule: Q01DX010 (ip)
[8] = dose: 8.0 mg/kg/injection, schedule: Q01DX010 (ip)
[9] = dose: 125.0 micrograms/kg/injection, schedule: Q01DX010 (ip)
[10] = dose: 250.0 micrograms/kg/injection, schedule: Q01DX010 (ip)
[11] = dose: 500.0 micrograms/kg/injection, schedule: Q01DX010 (ip)
[12] = dose: 1.0 mg/kg/injection, schedule: Q01DX010 (ip)

Structure (SMILES): CSc1ncnc2nc[nH]c12
- T/C [1]: 100 % of control
- T/C [2]: 100 % of control
- T/C [3]: 100 % of control
- T/C [4]: 100 % of control

Structure (SMILES): Cc1cc2nc3c(=O)[nH]c(=O)nc-3n(CC(O)C(O)C(O)C(O)CO)c2cc1C (stereo not given)
- T/C (dose: 3.13 mg/kg/injection, schedule: Q01DX010 (ip)): 105 % of control
- T/C (dose: 6.25 mg/kg/injection, schedule: Q01DX010 (ip)): 111 % of control
- T/C (dose: 12.5 mg/kg/injection, schedule: Q01DX010 (ip)): 105 % of control
- T/C [1]: 100 % of control and 105 % of control
- T/C [4]: 88 % of control

Structure (SMILES): CC[C@]1(O)C[C@H]2CN(CCc3c([nH]c4ccccc34)[C@@](C(=O)OC)(c3cc4c(cc3OC)N(C=O)[C@H]3[C@@](O)(C(=O)OC)[C@H](OC(C)=O)[C@]5(CC)C=CCN6CC[C@]43[C@@H]65)C2)C1
- T/C (dose: 0.03 mg/kg/injection, schedule: Q01DX010 (ip)): 100 % of control and 115 % of control
- T/C (dose: 0.03 mg/kg/injection, schedule: Q01DX Z (ip)): 96 % of control and 106 % of control
- T/C (dose: 0.06 mg/kg/injection, schedule: Q01DX010 (ip)): 90 % of control and 112 % of control
- T/C (dose: 0.06 mg/kg/injection, schedule: Q01DX Z (ip)): 96 % of control and 106 % of control
- T/C (dose: 0.12 mg/kg/injection, schedule: Q01DX Z (ip)): 102 % of control and 106 % of control
- T/C (dose: 0.25 mg/kg/injection, schedule: Q01DX010 (ip)): 115 % of control
- T/C (dose: 0.25 mg/kg/injection, schedule: Q01DX Z (ip)): 102 % of control and 120 % of control
- T/C [5]: 93 % of control
- T/C (dose: 62.5 micrograms/kg/injection, schedule: Q01DX010 (ip)): 112 % of control

Structure (SMILES): COc1ccc2c(c1OC)C(=O)O[C@@H]2[C@H]1c2c(cc3c(c2OC)OCO3)CCN1C
- T/C (dose: 0.9 mg/kg/injection, schedule: Q01DX010 (ip)): 100 % of control
- T/C (dose: 1.9 mg/kg/injection, schedule: Q01DX010 (ip)): 87 % of control
- T/C (dose: 3.9 mg/kg/injection, schedule: Q01DX010 (ip)): 87 % of control
- T/C (dose: 7.8 mg/kg/injection, schedule: Q01DX010 (ip)): 111 % of control and 87 % of control
- T/C (dose: 15.6 mg/kg/injection, schedule: Q01DX010 (ip)): 100 % of control
- T/C (dose: 31.3 mg/kg/injection, schedule: Q01DX010 (ip)): 100 % of control
- T/C (dose: 62.5 mg/kg/injection, schedule: Q01DX010 (ip)): 94 % of control
- T/C (dose: 125.0 mg/kg/injection, schedule: Q01DX010 (ip)): 88 % of control
- T/C (dose: 250.0 mg/kg/injection, schedule: Q01DX010 (ip)): 88 % of control

Structure (SMILES): C#CCN(C)Cc1ccccc1
- T/C [2]: 88 % of control
- T/C [3]: 88 % of control
- T/C [4]: 88 % of control

Structure (SMILES): O=C(Nc1ccc(NC2=NCCN2)cc1)c1ccc(C(=O)Nc2ccc(NC3=NCCN3)cc2)cc1
- T/C [6]: 95 % of control and 105 % of control
- T/C [7]: 90 % of control and 110 % of control
- T/C [8]: 110 % of control
- T/C (dose: 16.0 mg/kg/injection, schedule: Q01DX010 (ip)): 150 % of control

Structure (SMILES): CN(C)CC(=O)c1ccc(O)c(O)c1
- T/C [4]: 112 % of control
- T/C (dose: 300.0 mg/kg/injection, schedule: Q01DX010 (ip)): 100 % of control
- T/C (dose: 450.0 mg/kg/injection, schedule: Q01DX010 (ip)): 112 % of control
- T/C (dose: 675.0 mg/kg/injection, schedule: Q01DX010 (ip)): 118 % of control

Structure (SMILES): S=P(N1CC1)(N1CC1)N1CC1
- T/C (dose: 0.75 mg/kg/injection, schedule: Q01DX010 (ip)): 104 % of control and 105 % of control
- T/C (dose: 1.5 mg/kg/injection, schedule: Q01DX010 (ip)): 100 % of control and 105 % of control
- T/C (dose: 3.0 mg/kg/injection, schedule: Q01DX010 (ip)): 95 % of control and 104 % of control
- T/C (dose: 6.0 mg/kg/injection, schedule: Q01DX010 (ip)): 105 % of control and 109 % of control

Structure (SMILES): CSCS(=O)C[C@H](CO)NC(=O)/C=C/c1c(C)[nH]c(=O)[nH]c1=O (stereo not given in full)
- T/C [9]: 93 % of control
- T/C [10]: 87 % of control
- T/C [11]: 87 % of control

Structure (SMILES): O=c1cn[nH]c(=O)[nH]1
- T/C (dose: 32.0 mg/kg/injection, schedule: Q01DX006 (iv)): 88 % of control
- T/C (dose: 32.0 mg/kg/injection, schedule: Q01DX010 (ip)): 88 % of control
- T/C (dose: 32.0 mg/kg/injection, schedule: Q01DX010 (sc)): 88 % of control
- T/C (dose: 32.0 mg/kg/injection, schedule: Q02DX005 (im)): 94 % of control
- T/C (dose: 64.0 mg/kg/injection, schedule: Q01DX006 (iv)): 100 % of control
- T/C (dose: 64.0 mg/kg/injection, schedule: Q01DX010 (ip)): 88 % of control
- T/C (dose: 64.0 mg/kg/injection, schedule: Q01DX010 (sc)): 88 % of control
- T/C (dose: 64.0 mg/kg/injection, schedule: Q02DX005 (im)): 105 % of control
- T/C (dose: 100.0 mg/kg/injection, schedule: Q03DX Z (ip)): 88 % of control
- T/C (dose: 125.0 mg/kg/injection, schedule: Q01DX001 (ip)): 88 % of control and 94 % of control
- T/C (dose: 125.0 mg/kg/injection, schedule: Q01DX010 (oral)): 100 % of control
- T/C (dose: 125.0 mg/kg/injection, schedule: Q07DX Z (ip)): 111 % of control
- T/C (dose: 128.0 mg/kg/injection, schedule: Q01DX006 (iv)): 88 % of control
- T/C (dose: 128.0 mg/kg/injection, schedule: Q01DX010 (ip)): 88 % of control
- T/C (dose: 128.0 mg/kg/injection, schedule: Q01DX010 (sc)): 88 % of control
- T/C (dose: 128.0 mg/kg/injection, schedule: Q02DX005 (im)): 122 % of control
- T/C (dose: 200.0 mg/kg/injection, schedule: Q03DX Z (ip)): 100 % of control
- T/C (dose: 250.0 mg/kg/injection, schedule: Q01DX001 (ip)): 94 % of control and 100 % of control
- T/C (dose: 250.0 mg/kg/injection, schedule: Q01DX010 (oral)): 94 % of control
- T/C (dose: 250.0 mg/kg/injection, schedule: Q07DX Z (ip)): 88 % of control
- T/C (dose: 256.0 mg/kg/injection, schedule: Q01DX006 (iv)): 105 % of control
- T/C (dose: 256.0 mg/kg/injection, schedule: Q01DX010 (ip)): 100 % of control
- T/C (dose: 256.0 mg/kg/injection, schedule: Q01DX010 (sc)): 105 % of control
- T/C (dose: 256.0 mg/kg/injection, schedule: Q02DX005 (im)): 88 % of control
- T/C (dose: 400.0 mg/kg/injection, schedule: Q03DX Z (ip)): 94 % of control
- T/C (dose: 500.0 mg/kg/injection, schedule: Q01DX001 (ip)): 94 % of control and 105 % of control
- T/C (dose: 500.0 mg/kg/injection, schedule: Q01DX010 (oral)): 111 % of control
- T/C (dose: 500.0 mg/kg/injection, schedule: Q07DX Z (ip)): 88 % of control
- T/C (dose: 800.0 mg/kg/injection, schedule: Q03DX Z (ip)): 94 % of control
- T/C (dose: 1000.0 mg/kg/injection, schedule: Q01DX001 (ip)): 100 % of control and 105 % of control
- T/C (dose: 1000.0 mg/kg/injection, schedule: Q01DX010 (oral)): 94 % of control
- T/C (dose: 1000.0 mg/kg/injection, schedule: Q07DX Z (ip)): 100 % of control

Structure (SMILES): CCN(CC)c1ccc2cc3ccc(=[N+](CC)CC)cc-3oc2c1
- T/C [12]: 100 % of control
- T/C [6]: 100 % of control
- T/C [7]: 100 % of control
- T/C [8]: 100 % of control

Structure (SMILES): O=c1[nH]cc(F)c(=O)[nH]1
- T/C (dose: 20.0 mg/kg/injection, schedule: Q01DX010 (ip)): 162 % of control
- T/C (dose: 40.0 mg/kg/injection, schedule: Q01DX010 (ip)): 112 % of control
- T/C (dose: 80.0 mg/kg/injection, schedule: Q01DX010 (ip)): 93 % of control

Structure (SMILES): CC(=O)NC1=C(N2CC2)C(=O)C(NC(C)=O)=C(N2CC2)C1=O
- T/C [5]: 152 % of control
- T/C [12]: 152 % of control
- T/C [6]: 88 % of control
- T/C [9]: 100 % of control
- T/C [10]: 111 % of control
- T/C [11]: 116 % of control
